Where “and” joins values, the source holds several entries; their conditions need not be identical. Equal values may be shown once.
Tests used:
[1] = test system: CQ-resistant Dd2 strain of P. falciparum; test: In vitro growth inhibition of P. falciparum Dd2 ([3H]-hypoxanthine incorporation); format: cell-based, Plasmodium falciparum; settings: for IC50: Plasmodium falciparum, CQ-resistant Dd2, mean +/− SD of at least three independent experiments; for Selectivity Index (IC50 AB943/IC50 Dd2): ratio of cytotoxicity IC50 to antiplasmodial IC50 (Dd2)
Experimental: (§1) The chloroquine-resistant FcB1/Colombia and Dd2/Indochina strains of Plasmodium falciparum were obtained from the Protist Collection of the National Museum of Natural History, Paris, France (n° MNHN-CEU-2016-224-PfFCB1 and MNHN-CEU-2016-222-PfDD2). The parasites were maintained in vitro on human erythrocytes in RPMI 1640 medium supplemented by 8% (v/v) heat-inactivated human serum, at 37 °C, under an atmosphere of 5% CO2. The human red blood cells and serum were provided by the Établissement Français du Sang under the C-CPSL-UNT approval no. 13/EFS/126. The in vitro drug susceptibility assays were measured by [^3H]-hypoxanthine incorporation, as previously described. The drug stock solutions were prepared in DMSO. Briefly, the assays were performed in 96-well plates. The compounds were diluted in the culture medium (100 μL per well). The parasite cultures (100 μL, 2% parasitaemia, and 1% final hematocrit) were then added to each well and incubated for 24 h at 37 °C prior to the addition of 0.5 μCi of [^3H]- hypoxanthine (GE Healthcare, Paris, France, 1 to 5 Ci·mmol/mL) per well. After a further incubation of 24 h, the plates were frozen and thawed. The cell lysates were then collected onto fiberglass filters and counted in a liquid scintillation spectrometer. The growth inhibition for each drug concentration was determined through a comparison of the radioactivity incorporated in the treated culture with that in the control culture maintained on the same plate. The drugs were first evaluated for a range of fixed concentrations of 50, 5, 0.5, 0.05, and 0.005 μg/mL. […] The IC50 value was obtained from the drug concentration–response curve, and the results were expressed in μM or nM as the mean values ± standard deviations determined from several independent experiments. Artesunate (46) was used as an antimalarial drug control.

[2] = test system: human primary fibroblasts AB943; test: Cytotoxicity upon human primary fibroblasts AB943 (resazurin); format: cell-based; settings: Fibroblast, 72 h, mean +/− SD of at least three independent experiments
Experimental: A cellular cytotoxicity evaluation was performed upon human primary fibroblasts AB943, as previously described. The assays were realized in 96-well plates in DMEM + Glutamax without phenol red medium containing 25 mM HEPES, a pH of 7.3, and 10% of fetal calf serum under a 5% CO2 atmosphere, at 37 °C. After trypsin treatment, the AB943 cells were seeded at 2000 cells per well in 100 μL. After 24 h of incubation, drugs diluted in the culture medium were added (100 μL per well). The drug stock solutions were prepared in dimethyl sulfoxide (DMSO). The final DMSO concentration in the cultures remained below 1%. Control cultures were constituted of cultures treated with DMSO instead of the drug. The cytotoxicity assay was based on the conversion of a redo-sensitive dye (resazurin) to a fluorescent product via viable cells. After 72 h of incubation, the resazurin solution was added in each well at a final concentration of 45 μM. The fluorescence was measured at 530 nm excitation and 590 nm emission wavelengths after 4 h of incubation. The percentage of the inhibition of cell growth was calculated by comparing the fluorescence of cells maintained in the presence of the drug to that in the absence of the drug. The concentration causing 50% growth inhibition (IC50) was obtained from the drug concentration–response curve, and the results were expressed as the mean values ± standard deviations determined from several experiments.

[3] = test system: CQ-resistant P. falciparum FcB1 strain; test: In vitro growth inhibition of P. falciparum FcB1 ([3H]-hypoxanthine incorporation); format: cell-based, Plasmodium falciparum; settings: for IC50: Plasmodium falciparum; for Selectivity Index (IC50 AB943/IC50 FcB1): ratio of cytotoxicity IC50 to antiplasmodial IC50 (FcB1)
Experimental: as §1

[4] = FCB1, CQ-resistant FcB1, mean +/− standard deviation of independent experiments (at least four in Tables 1-2, at least three in Tables 3-4)
[5] = FCB1, Table 5, single compound (hybrid or AS alone)

melting point [°C]	Compound	IC50 [1] [nM]	Selectivity Index (IC50 AB943/IC50 Dd2) [1]	IC50 [2] [nM]	IC50 [3, 4] [nM]	Selectivity Index (IC50 AB943/IC50 FcB1) [3]	IC50 [3, 5] [nM]
123 to 124	C[C@@H]1CCC2[C@@H](C)[C@@H](CC(=O)N3CCN(c4cc5c(cc4F)c(=O)c(C(=O)O)cn5C4CC4)CC3)O[C@@H]3O[C@@]4(C)CCC1[C@@]23OO4 (stereo partly drawn) [Compound 12, 1-cyclopropyl-6-fluoro-4-oxo-7-(4-(2-((3R,6R,9R,10R,12R,12aR)-3,6,9-trimethyldecahydro-12H-3,12-epoxy[1,2]dioxepino[4,3-i]isochromen-10-yl)acetyl)piperazin-1-yl)-1,4-dihydroquinoline-3-carboxylic acid]	32.5	2034	66100	14.8	4453	–
105 to 106	CCCCOC(=O)c1cn(C2CC2)c2cc(N3CCN(C(=O)C[C@H]4O[C@@H]5O[C@@]6(C)CCC7[C@H](C)CCC([C@H]4C)[C@]75OO6)CC3)c(F)cc2c1=O (stereo partly drawn) [Compound 16, Butyl 1-cyclopropyl-6-fluoro-4-oxo-7-(4-(2-((3R,6R,9R,10R,12R,12aR)-3,6,9-trimethyldecahydro-12H-3,12-epoxy[1,2]dioxepino[4,3-i]isochromen-10-yl)acetyl)piperazin-1-yl)-1,4-dihydroquinoline-3-carboxylate]	24	622	14900	7.5	2000	–
135.1 to 136	CCOC(=O)c1cn(CC)c2cc(N3CCN(C(=O)C[C@H]4O[C@@H]5O[C@@]6(C)CCC7[C@H](C)CCC([C@H]4C)[C@]75OO6)CC3)c(F)cc2c1=O (stereo partly drawn) [Compound 18, Ethyl 1-ethyl-6-fluoro-4-oxo-7-(4-(2-((3R,6R,9R,10R,12R,12aR)-3,6,9-trimethyldecahydro-12H-3,12-epoxy[1,2]dioxepino[4,3-i]isochromen-10-yl)acetyl)piperazin-1-yl)-1,4-dihydroquinoline-3-carboxylate]	58.7	925	54300	25.5	2129	–
151 to 152	CCCCOC(=O)c1cn(CC)c2cc(N3CCN(C(=O)C[C@H]4O[C@@H]5O[C@@]6(C)CCC7[C@H](C)CCC([C@H]4C)[C@]75OO6)CC3)c(F)cc2c1=O (stereo partly drawn) [Compound 19, Butyl 1-ethyl-6-fluoro-4-oxo-7-(4-(2-((3R,6R,9R,10R,12R,12aR)-3,6,9-trimethyldecahydro-12H-3,12-epoxy[1,2]dioxepino[4,3-i]isochromen-10-yl)acetyl)piperazin-1-yl)-1,4-dihydroquinoline-3-carboxylate]	38.4	469	18000	13.9	1294	–
103.4 to 104.5	C[C@@H]1CCC2[C@@H](C)[C@H](OC(=O)CCC(=O)N3CCN(c4cc5c(cc4F)c(=O)c(C(=O)O)cn5C4CC4)CC3)O[C@@H]3O[C@@]4(C)CCC1[C@@]23OO4 (stereo partly drawn) [Compound 20, 1-cyclopropyl-6-fluoro-4-oxo-7-(4-(4-oxo-4-(((3R,6R,9R,10S,12R,12aR)-3,6,9-trimethyldecahydro-12H-3,12-epoxy[1,2]dioxepino[4,3-i]isochromen-10-yl)oxy)butanoyl)piperazin-1-yl)-1,4-dihydroquinoline-3-carboxylic acid]	8	5146	41300	4	10,318	–
115.4 to 116.2	CCOC(=O)c1cn(C2CC2)c2cc(N3CCN(C(=O)CCC(=O)O[C@@H]4O[C@@H]5O[C@@]6(C)CCC7[C@H](C)CCC([C@H]4C)[C@]75OO6)CC3)c(F)cc2c1=O (stereo partly drawn) [Compound 21, Ethyl 1-cyclopropyl-6-fluoro-4-oxo-7-(4-(4-oxo-4-(((3R,6R,9R,10S,12R,12aR)-3,6,9-trimethyldecahydro-12H-3,12-epoxy[1,2]dioxepino[4,3-i]isochromen-10-yl)oxy)butanoyl)piperazin-1-yl)-1,4-dihydroquinoline-3-carboxylate]	16	3302	52800	5.4	9826	–
128.6 to 129.7	CCCCOC(=O)c1cn(C2CC2)c2cc(N3CCN(C(=O)CCC(=O)O[C@@H]4O[C@@H]5O[C@@]6(C)CCC7[C@H](C)CCC([C@H]4C)[C@]75OO6)CC3)c(F)cc2c1=O (stereo partly drawn) [Compound 22, Butyl 1-cyclopropyl-6-fluoro-4-oxo-7-(4-(4-oxo-4-(((3R,6R,9R,10S,12R,12aR)-3,6,9-trimethyldecahydro-12H-3,12-epoxy[1,2]dioxepino[4,3-i]isochromen-10-yl)oxy)butanoyl)piperazin-1-yl)-1,4-dihydroquinoline-3-carboxylate]	13	3002	38900	3.5	11,303	3.5
140 to 141.1	CCOC(=O)c1cn(CC)c2cc(N3CCN(C(=O)CCC(=O)O[C@@H]4O[C@@H]5O[C@@]6(C)CCC7[C@H](C)CCC([C@H]4C)[C@]75OO6)CC3)c(F)cc2c1=O (stereo partly drawn) [Compound 23, Ethyl 1-ethyl-6-fluoro-4-oxo-7-(4-(4-oxo-4-(((3R,6R,9R,10S,12R,12aR)-3,6,9-trimethyldecahydro-12H-3,12-epoxy[1,2]dioxepino[4,3-i]isochromen-10-yl)oxy)butanoyl)piperazin-1-yl)-1,4-dihydroquinoline-3-carboxylate]	3.5	12,488	43700	1.5	28,000 and 28,382	1.5
155 to 156	CCCCOC(=O)c1cn(CC)c2cc(N3CCN(C(=O)CCC(=O)O[C@@H]4O[C@@H]5O[C@@]6(C)CCC7[C@H](C)CCC([C@H]4C)[C@]75OO6)CC3)c(F)cc2c1=O (stereo partly drawn) [Compound 24, Butyl 1-ethyl-6-fluoro-4-oxo-7-(4-(4-oxo-4-(((3R,6R,9R,10S,12R,12aR)-3,6,9-trimethyldecahydro-12H-3,12-epoxy[1,2]dioxepino[4,3-i]isochromen-10-yl)oxy)butanoyl)piperazin-1-yl)-1,4-dihydroquinoline-3-carboxylate]	9.2	3311	30300	1.9	16,000 and 16,047	1.9
160.2 to 161.3	C[C@@H]1CCC2[C@@H](C)[C@@H](CC(=O)N3CCN(c4cc5c(cc4F)c(=O)c(C(=O)N4CCN(c6ccnc7cc(Cl)ccc67)CC4)cn5C4CC4)CC3)O[C@@H]3O[C@@]4(C)CCC1[C@@]23OO4 (stereo partly drawn) [Compound 25, 3-(4-(7-chloroquinolin-4-yl)piperazine-1-carbonyl)-1-cyclopropyl-6-fluoro-7-(4-(2-((3R,6R,9R,10R,12R,12aR)-3,6,9-trimethyldecahydro-12H-3,12-epoxy[1,2]dioxepino[4,3-i]isochromen-10-yl)acetyl)piperazin-1-yl)quinolin-4(1H)-one]	17.7	220	3900	7.5	521	–
–	CCn1cc(C(=O)N2CCN(c3ccnc4cc(Cl)ccc34)CC2)c(=O)c2cc(F)c(N3CCNCC3)cc21 [Compound 43]	483	26	12700	476	27	–
